Type in all cases: functional, cell-based
The subject of assay [1] is K562. In words: Cytotoxicity against Homo sapiens (human) K562 cells assessed as growth inhibition after 48 hr by MTT assay.
The nature of assay [2]: Cytotoxicity against Homo sapiens (human) HCT28 cells assessed as growth inhibition after 48 hr by MTT assay. Background: Formazan colour is commonly taken as a measure of viable cells.
The subject of assay [3] is MCF7. In words: Cytotoxicity against Homo sapiens (human) MCF7 cells assessed as growth inhibition after 48 hr by MTT assay.
Where [4] appears, read: Homo sapiens, 48 h, read-out: IC50.
Where [5] appears, read: Homo sapiens, MCF7, 48 h, read-out: IC50.
Setting [6] is: Homo sapiens, K562, 48 h, read-out: IC50.

These results are taken from ChEMBL document CHEMBL3046148, “Synthesis and biological evaluation of resveratrolcoumarin hybrid compounds as potential antitumor agents” (Med Chem Res, 2013).

For orientation: IC50 means the midpoint of a concentration-inhibition curve.

SMILES strings stand for the structures.

`COc1cc(/C=C\c2ccc3oc(=O)c(-c4ccc(OC)c(OC)c4)cc3c2)cc(OC)c1` [CIS-3-(3,4-DIMETHOXYPHENYL)-6-(3,5-DIMETHOXYSTYRYL)COUMARIN]: the IC50 result in assay [1] (k562) was “Not Active”; in assay [2] (setting [4]), 13.5 µM; in assay [3] (setting [5]), 9 µM.
For the compound `COc1ccc(/C=C\c2ccc3oc(=O)c(-c4ccc(OC)c(OC)c4)cc3c2)cc1` [CIS-3-(3,4-DIMETHOXYPHENYL)-6-(4-METHOXYSTYRYL)COUMARIN], the IC50 entry in assay [1] (k562), in assay [2] and in assay [3] (mcf7) was “Not Active” each time.
Turning to `COc1ccc(-c2cc3cc(/C=C\c4ccccc4)ccc3oc2=O)cc1OC` [CIS-3-(3,4-DIMETHOXYPHENYL)-6-STYRYLCOUMARIN], the half-maximal inhibitory concentration (IC50) result in assay [1] (k562), in assay [2] and in assay [3] (mcf7) was “Not Active” each time.
With `COc1ccc(-c2cc3cc(/C=C\c4ccccc4)ccc3oc2=O)cc1` [CIS-3-(4-METHOXYPHENYL)-6-STYRYLCOUMARIN], the concentration for half-maximal inhibition (IC50) result in assay [1] (k562), in assay [2] and in assay [3] (mcf7) was “Not Active” each time.
As for `COc1ccc(-c2cc3cc(/C=C\c4cc(OC)cc(OC)c4)ccc3oc2=O)cc1` [CIS-6-(3,5-DIMETHOXYSTYRYL)-3-(4-METHOXYPHENYL)COUMARIN], the half-maximal inhibitory concentration (IC50) result in assay [1] (k562), in assay [2] and in assay [3] (mcf7) was “Not Active” each time.
With `COc1cc(/C=C\c2ccc3oc(=O)c(-c4ccccc4)cc3c2)cc(OC)c1` [CIS-6-(3,5-DIMETHOXYSTYRYL)-3-PHENYLCOUMARIN], the concentration for half-maximal inhibition (IC50) result in assay [1] (k562), in assay [2] and in assay [3] (mcf7) was “Not Active” throughout.
As to `COc1ccc(/C=C\c2ccc3oc(=O)c(-c4ccccc4)cc3c2)cc1` [CIS-6-(4-METHOXYSTYRYL)-3-PHENYLCOUMARIN], the IC50 in assay [1] (setting [6]) turned out to be 3.79 µM; in assay [2] (setting [4]), 10.7 µM; in assay [3] (setting [5]) it was 10.9 µM.
Turning to `COc1cc(/C=C/c2ccc3oc(=O)c(-c4ccc(OC)c(OC)c4)cc3c2)cc(OC)c1` [TRANS-3-(3,4-DIMETHOXYPHENYL)-6-(3,5-DIMETHOXYSTYRYL)COUMARIN], the 50% inhibitory concentration (IC50) entry is “Not Active” in assay [1] (k562), 10.1 µM in assay [2] (setting [4]) and 7.41 µM in assay [3] (setting [5]).
`COc1ccc(/C=C/c2ccc3oc(=O)c(-c4ccc(OC)c(OC)c4)cc3c2)cc1` [TRANS-3-(3,4-DIMETHOXYPHENYL)-6-(4-METHOXYSTYRYL)COUMARIN]: the results for the IC50 in assay [1] (setting [6]), in assay [2] (setting [4]) and in assay [3] (setting [5]) were 8.76 µM, 7.14 µM and 4.23 µM, respectively.
For `COc1ccc(-c2cc3cc(/C=C/c4ccccc4)ccc3oc2=O)cc1OC` [TRANS-3-(3,4-DIMETHOXYPHENYL)-6-STYRYLCOUMARIN], the IC50 result in assay [1] (k562) is “Not Active”; in assay [2] (setting [4]), 10.8 µM; in assay [3] (setting [5]), 14.5 µM.
In the case of `COc1ccc(-c2cc3cc(/C=C/c4cc(OC)cc(OC)c4)ccc3oc2=O)cc1` [TRANS-6-(3,5-DIMETHOXYSTYRYL)-3-(4-METHOXYPHENYL)COUMARIN], the figures for the IC50 in assay [1] (setting [6]), in assay [2] (setting [4]) and in assay [3] (setting [5]) were 11.5 µM, 19.2 µM and 11.2 µM, respectively.
On to `COc1cc(/C=C/c2ccc3oc(=O)c(-c4ccccc4)cc3c2)cc(OC)c1` [TRANS-6-(3,5-DIMETHOXYSTYRYL)-3-PHENYLCOUMARIN], for which the IC50 result in assay [1] (k562) was “Not Active”; in assay [2], “Not Active”; in assay [3] (setting [5]), 13.5 µM.
Consider `COc1ccc(/C=C/c2ccc3oc(=O)c(-c4ccccc4)cc3c2)cc1` [TRANS-6-(4-METHOXYSTYRYL)-3-PHENYLCOUMARIN], for which the half-inhibitory concentration (IC50) stood at 13 µM in assay [1] (setting [6]), 3.78 µM in assay [2] (setting [4]) and 7.32 µM in assay [3] (setting [5]).
Consider `COc1ccc(/C=C/c2cc(OC)cc(OC)c2)cc1` [TRISMETHOXYRESVERATROL], for which the figures for the half-inhibitory concentration (IC50) in assay [1] (setting [6]), in assay [2] (setting [4]) and in assay [3] (setting [5]) were 6.39 µM, 4.83 µM and 8.41 µM, respectively.
